Our source for the MIC and Activity values is ChEMBL document CHEMBL3826887, “Functional foldamers that target bacterial membranes: The effect of charge, amphiphilicity and conformation” (2016).

The structures appear in SMILES notation. ≈ marks a conversion by molar mass, not a printed value.

Assay type in all cases: functional
Experiment [1] has as its system Escherichia coli. Nature of the experiment: Antibacterial activity against Escherichia coli W3110.
Experiment [2] relates to Lipid bilayer. Nature of the experiment: Induction of membrane lysis in Escherichia coli W3110 lipid vesicles assessed as calcein release at 93.73 uM by spectrofluorometric analysis.
Experiment [3] has as its system Escherichia coli. Briefly: Membrane permeabilisation in Escherichia coli W3110 assessed as NPN uptake at 2mM incubated overnight by spectrofluorometric analysis.
Experiment [4] has as its system Lipid bilayer. Briefly: Induction of membrane lysis in Staphylococcus aureus UL12 lipid vesicles assessed as calcein release at 375 uM by spectrofluorometric analysis.
The test system of experiment [5] is Staphylococcus aureus. Nature of the experiment: Membrane permeabilisation in Staphylococcus aureus UL12 assessed as NPN uptake at 2mM incubated overnight by spectrofluorometric analysis.
In experiment [6] the test system is Staphylococcus aureus. Nature of the experiment: Membrane permeabilisation in Staphylococcus aureus UL12 assessed as NPN uptake at 2mM incubated for 1 hr by spectrofluorometric analysis.
Experiment [7] concerns Escherichia coli. Nature of the experiment: Membrane permeabilisation in Escherichia coli W3110 assessed as NPN uptake at 2mM incubated for 1 hr by spectrofluorometric analysis.
Experiment [8] relates to Lipid bilayer. Briefly: Induction of membrane lysis in Escherichia coli W3110 lipid vesicles assessed as calcein release at 1500 uM by spectrofluorometric analysis.
Experiment [9] relates to Staphylococcus aureus. Briefly: Antibacterial activity against Staphylococcus aureus UL12.
For experiment [10], the system named is Lipid bilayer. Briefly: Induction of membrane lysis in Escherichia coli W3110 lipid vesicles assessed as calcein release at 750 uM by spectrofluorometric analysis.
Experiment [11] deals with Lipid bilayer. Nature of the experiment: Induction of membrane lysis in Staphylococcus aureus UL12 lipid vesicles assessed as calcein release at 1500 uM by spectrofluorometric analysis.
In experiment [12] the test system is Lipid bilayer. Nature of the experiment: Induction of membrane lysis in Escherichia coli W3110 lipid vesicles assessed as calcein release at 3000 uM by spectrofluorometric analysis.
In experiment [13] the test system is Lipid bilayer. Briefly: Induction of membrane lysis in Escherichia coli W3110 lipid vesicles assessed as calcein release at 375 uM by spectrofluorometric analysis.
For experiment [14], the system named is Lipid bilayer. Nature of the experiment: Induction of membrane lysis in Staphylococcus aureus UL12 lipid vesicles assessed as calcein release at 750 uM by spectrofluorometric analysis.
Experiment [15] concerns Lipid bilayer. Nature of the experiment: Induction of membrane lysis in Staphylococcus aureus UL12 lipid vesicles assessed as calcein release at 3000 uM by spectrofluorometric analysis.
In experiment [16] the test system is Lipid bilayer. Nature of the experiment: Induction of membrane lysis in Staphylococcus aureus UL12 lipid vesicles assessed as calcein release at 93.73 uM by spectrofluorometric analysis.
For experiment [17], the system named is Lipid bilayer. Nature of the experiment: Induction of membrane lysis in Escherichia coli W3110 lipid vesicles assessed as calcein release at 187.5 uM by spectrofluorometric analysis.
Experiment [18] concerns Lipid bilayer. Briefly: Induction of membrane lysis in Staphylococcus aureus UL12 lipid vesicles assessed as calcein release at 187.5 uM by spectrofluorometric analysis.

As to `CN(C(=O)N(C)c1cccc(NC(=O)c2ccncc2)c1)c1ccccc1`, the figures for the minimum inhibitory concentration (MIC) in the experiment with Escherichia coli [1] and against Staphylococcus aureus [9] were 2000 µM (≈ 721 µg/mL) and 1000 µM (≈ 360 µg/mL), respectively. Moreover, the Activity is 24.1% in the experiment with Lipid bilayer [2]; 52.34% in the experiment on Escherichia coli [3]; 49.6% in the experiment with Lipid bilayer [4]; 57.33% in the experiment on Staphylococcus aureus [5]; 50.59% with Staphylococcus aureus [6]; 49.57% in the experiment on Escherichia coli [7]. The Activity in the experiment on Lipid bilayer [8] is 33.6%; with Lipid bilayer [10], 29.1%; in the experiment with Lipid bilayer [11], 53.1%; in the experiment on Lipid bilayer [12], 35.3%; in the experiment on Lipid bilayer [13], 26.3%; in the experiment on Lipid bilayer [14] it was 51.5%. The Activity is 54.6% in the experiment on Lipid bilayer [15], 40% with Lipid bilayer [16], 24.8% in the experiment on Lipid bilayer [17] and 48.2% in the experiment on Lipid bilayer [18].
Take `CN(C(=O)N(C)c1ccccc1)c1ccccc1`: the minimum inhibitory concentration (MIC) is > 3000 µM in the experiment with Escherichia coli [1] and 2500 µM (≈ 601 µg/mL) against Staphylococcus aureus [9]. The Activity in the experiment on Lipid bilayer [2] is 0.82%; in the experiment with Escherichia coli [3], 38.67%; with Lipid bilayer [4], 12.8%; with Staphylococcus aureus [5], 44.34%; with Staphylococcus aureus [6], 43.82%; in the experiment with Escherichia coli [7], 40.75%. Moreover, the Activity was 7.28% with Lipid bilayer [8]; 6.44% in the experiment with Lipid bilayer [10]; 15.1% with Lipid bilayer [11]; 9.02% with Lipid bilayer [12]; 4.25% with Lipid bilayer [13]; 14.2% with Lipid bilayer [14]. In addition, the Activity with Lipid bilayer [15] was 24.1%; in the experiment on Lipid bilayer [16] it was 2.59%; in the experiment with Lipid bilayer [17], 2.05%; in the experiment with Lipid bilayer [18], 5.71%.
As to `Nc1cccc(NC(=O)Nc2ccccc2)c1`, the minimal inhibitory concentration (MIC) is > 3000 µM against Escherichia coli [1] and 2500 µM (≈ 568 µg/mL) against Staphylococcus aureus [9]. For the same molecule, the Activity in the experiment on Lipid bilayer [2] was 0.15%; in the experiment on Escherichia coli [3] it was 16.34%; in the experiment with Lipid bilayer [4], 10.1%; in the experiment with Staphylococcus aureus [5], 19.29%; in the experiment on Staphylococcus aureus [6], 38.91%; with Escherichia coli [7] it was 33.93%. Moreover, the Activity is 1.78% in the experiment with Lipid bilayer [8]; 1.73% with Lipid bilayer [10]; 13.8% in the experiment on Lipid bilayer [11]; 2.17% with Lipid bilayer [12]; 1.24% with Lipid bilayer [13]; 12.7% with Lipid bilayer [14]. Moreover, the Activity is 15.5% with Lipid bilayer [15], 4.58% in the experiment with Lipid bilayer [16], 0.95% in the experiment with Lipid bilayer [17] and 8.34% in the experiment with Lipid bilayer [18].
Regarding `O=C(Nc1ccccc1)Nc1ccccc1` [DIPHENYLUREA], the minimal inhibitory concentration (MIC) is > 3000 µM in the experiment on Escherichia coli [1] and 2000 µM (≈ 425 µg/mL) against Staphylococcus aureus [9]. For the same molecule, the Activity in the experiment with Lipid bilayer [2] is 3.17%; with Escherichia coli [3], 30.02%; in the experiment on Lipid bilayer [4], 13.8%; in the experiment on Staphylococcus aureus [5] it was 49.4%; in the experiment on Staphylococcus aureus [6], 46.01%; in the experiment with Escherichia coli [7], 45.29%. The Activity is 12% with Lipid bilayer [8]; 8.53% in the experiment with Lipid bilayer [10]; 18.3% with Lipid bilayer [11]; 14.8% in the experiment on Lipid bilayer [12]; 6.47% in the experiment with Lipid bilayer [13]; 15.3% with Lipid bilayer [14]. The Activity in the experiment with Lipid bilayer [15] is 25.5%; with Lipid bilayer [16] it was 7.18%; in the experiment with Lipid bilayer [17], 6.27%; with Lipid bilayer [18], 9.2%.
Take `NCC(=O)Nc1cccc(NC(=O)Nc2ccccc2)c1`: the MIC came to 2000 µM (≈ 569 µg/mL) in the experiment with Escherichia coli [1] and 1500 µM (≈ 426 µg/mL) against Staphylococcus aureus [9]. Further, the Activity in the experiment on Lipid bilayer [2] was 1.1%; in the experiment with Escherichia coli [3] it was 50.93%; in the experiment with Lipid bilayer [4] it was 17.8%; in the experiment on Staphylococcus aureus [5] it was 69.56%; with Staphylococcus aureus [6], 69.56%; with Escherichia coli [7], 47.09%. The Activity with Lipid bilayer [8] is 23.5%; in the experiment with Lipid bilayer [10], 16.6%; with Lipid bilayer [11], 31.2%; in the experiment with Lipid bilayer [12], 29.2%; with Lipid bilayer [13] it was 9.17%; in the experiment on Lipid bilayer [14], 27.2%. For the same molecule, the Activity in the experiment on Lipid bilayer [15] was 44.1%; in the experiment with Lipid bilayer [16], 6.91%; with Lipid bilayer [17], 6.06%; in the experiment with Lipid bilayer [18], 11.2%.
On to `CN(C(=O)N(C)c1cccc(N)c1)c1ccccc1`, for which the figures for the MIC in the experiment on Escherichia coli [1] and against Staphylococcus aureus [9] were > 3000 µM and 2000 µM (≈ 511 µg/mL), respectively. Further, the Activity with Lipid bilayer [2] was 2.3%; in the experiment with Escherichia coli [3], 48.79%; in the experiment on Lipid bilayer [4] it was 12%; with Staphylococcus aureus [5], 53.57%; with Staphylococcus aureus [6], 46.26%; in the experiment with Escherichia coli [7], 40.18%. Besides, the Activity is 8.03% in the experiment on Lipid bilayer [8]; 7.44% in the experiment on Lipid bilayer [10]; 21.2% in the experiment with Lipid bilayer [11]; 9.65% in the experiment on Lipid bilayer [12]; 6.75% in the experiment on Lipid bilayer [13]; 15.3% in the experiment with Lipid bilayer [14]. The Activity in the experiment with Lipid bilayer [15] was 27%; in the experiment with Lipid bilayer [16], 4.45%; in the experiment with Lipid bilayer [17] it was 5.72%; with Lipid bilayer [18] it was 7.13%.
With `CN(C(=O)N(C)c1cccc(NC(=O)CN)c1)c1ccccc1`, the MIC in the experiment on Escherichia coli [1] was 2000 µM (≈ 625 µg/mL); against Staphylococcus aureus [9], 2500 µM (≈ 781 µg/mL). Moreover, the Activity in the experiment on Lipid bilayer [2] was 8.45%; in the experiment on Escherichia coli [3] it was 52.87%; with Lipid bilayer [4], 11.8%; in the experiment with Staphylococcus aureus [5] it was 36.81%; in the experiment with Staphylococcus aureus [6], 40.6%; in the experiment with Escherichia coli [7] it was 42.47%. Also, the Activity with Lipid bilayer [8] was 31%; in the experiment on Lipid bilayer [10], 30%; in the experiment with Lipid bilayer [11], 15.3%; in the experiment on Lipid bilayer [12] it was 35.5%; in the experiment on Lipid bilayer [13], 29.3%; with Lipid bilayer [14], 13.2%. Besides, the Activity in the experiment on Lipid bilayer [15] is 17.8%; in the experiment with Lipid bilayer [16] it was 4.45%; in the experiment with Lipid bilayer [17] it was 27.2%; in the experiment on Lipid bilayer [18], 10%.
